The source of these data is US7776828B2, “Radiation therapy methods” (University of Southern California, priority 1998, dated 2010).

Entries after “also recorded” stand apart in the source; their conditions may differ. Non-standard residues stand in square brackets, D forms with d. No end group written: not given here. Phe(4-NH2) = Nc1ccc(C[C@H](N)C(=O)O)cc1

In one assay the test system is AT2 receptor. As to conditions: cited from earlier work.
For assay [1], the system named is Female C57B1/6 mice. The experiment in a line: Post-irradiation mouse mortality/survival (600 cGy total body irradiation). The format is in vivo. The protocol:
(§1) Female C57B1/6 mice (Jackson Labs, Bar Harbor, Me.) were irradiated with 600 cGy total body irradiation. Subcutaneous injection with either AII (10 μg/kg/day or 100 μg/kg/day) or saline (placebo) was initiated two days before (−day 2), on the day of (day 0) or 2 days after (+day 2) irradiation and continued until the animals succumbed to the irradiation or were necropsied. At various times after irradiation, the mice were anaesthetized with Metofane (Pittman-Moore Animal Health, NZ) and bled via the retro-orbital sinus. Red blood cells were lysed with 0.3% acetic acid and the number of white blood cells was determined by counting with a hemacytometer. […] Furthermore, AII administration at all time periods tested increased the number of circulating white blood cells (FIGS. 4-6).

Assay [2] has as its system Female C57B1/6 mice. In words: Blood cell recovery after irradiation (white blood cells, megakaryocytes, monocytes, neutrophils, lymphocytes). The format is in vivo. The protocol: as §1
In the next assay the test system is C57B1/6 mice. In words: Survival and white blood cell number of mice receiving bone marrow transplantation after lethal irradiation. The format is in vivo. The protocol:
Donor C57B1/6 mice (female, 6-8 weeks old) were irradiated with 600 cGy total body irradiation. Starting on the day of irradiation, the mice received either saline (0.1 ml) or 20 μg/ml angiotensin II (0.1 ml, 100 μg/kg) subcutaneously for fourteen days. At the end of this period, the bone marrow was harvested from the femur by flushing and the number of viable nucleated cells determined by counting under a light microscope on a hemacytometer in the presence of trypan blue.
These donor bone marrow cells were then injected intravenously into recipient mice (female C57B1/6, 6-8 weeks old) that had been lethally irradiated (900 cGy total body irradiation) at two concentrations: 1×10^6 or 1×10^5 cells per mouse. After injection, the recipient mice received either saline or 100 μg/kg AII subcutaneously until death or termination. The study design in its entirety is as follows:
The survival of the mice and the number of circulating white blood cells were measured as a function of time post-bone marrow transplantation.

A further assay concerns wound tissue. The conditions noted are these: application to wound tissue; cited from earlier work.
Assay [3] deals with cultured cells that are involved in wound repair. As to conditions: cited from earlier work.
The subject of another assay is rabbit corneal eye. As to conditions: rabbit corneal eye model; cited from earlier work.
Assay [4] concerns chick chorioallantoic membrane. As to conditions: chick chorioallantoic membrane model; cited from earlier work.
The nature of assay [5]: Effectiveness testing of AII fragments (test not specified). The conditions noted are these: test not described.
The mark [6] stands for this setting: recipients 900 cGy, AII 100 μg/kg s.c. to donor and/or recipient.

For “Asp-Arg-Val-Tyr-Ile-Xaa-Pro-Phe (DRVYI[Phe(4-NH2)]PF) [p-aminophenylalanine6-AII, reference compound]”, the binding characteristics entry in the assay with AT2 receptor (compared with AT2 antagonists in the experimental models tested) is “comparable to AT2 antagonists”.

Take “Asp-Arg-Val-Tyr-Ile-His-Pro-Phe (DRVYIHPF) [AII]”: in the assay with Female C57B1/6 mice [1] (AII 10 or 100 μg/kg/day s.c. starting on the day of irradiation (day 0), FIG. 2), the survival after irradiation result is listed as “substantially increased survival”. For the same substance, the survival after irradiation result in the assay with Female C57B1/6 mice [1] (AII 10 or 100 μg/kg/day s.c. starting two days after irradiation (+day 2), FIG. 3) is reported as “substantially increased survival”. Further, the “protection against mortality resulting from irradiation” value in the assay on Female C57B1/6 mice [1] (AII 10 or 100 μg/kg/day s.c. starting two days prior to irradiation (-day 2), FIG. 1) was “did not protect against mortality”. The number of megakaryocytes entry in the assay with Female C57B1/6 mice [2] (after 600 cGy irradiation, FIGS. 7-9) is given as “increased”. Further, in the assay on Female C57B1/6 mice [2] (after 600 cGy irradiation, FIGS. 10-12), the number of monocytes entry is recorded as “increased”. Besides, in the assay on Female C57B1/6 mice [2] (after 600 cGy irradiation, FIGS. 13-15), the number of neutrophils result is listed as “increased”. For the same substance, the number of lymphocytes result with Female C57B1/6 mice [2] (after 600 cGy irradiation, FIGS. 16-18) is given as “increased”. In addition, in the assay on Female C57B1/6 mice [2] (all time periods tested (-day 2, day 0, +day 2), 600 cGy, FIGS. 4-6), the “number of circulating white blood cells” value is listed as “increased”. In the assay on C57B1/6 mice (setting [6]), the “number of circulating white blood cells post-bone marrow transplantation” value is reported as “increased” and the “survival post-bone marrow transplantation” value is “increased”. Moreover, the “benefit (survival and white blood cell number)” value in the assay with C57B1/6 mice (treatment of both the donor bone marrow cells and the recipient mice with AII) is “greatest benefit”. For the same substance, in the assay with AT2 receptor (selectivity AT2 over AT1), the “affinity for AT2 than AT1” value was 100 times. Further, the “rate of wound healing” value in the assay on wound tissue is “significantly increases”. Further, in assay [3], the mitogenesis and chemotaxis entry is recorded as “increases”; the “release of growth factors and extracellular matrices” value is reported as “increases”. For the same substance, the angiogenic activity entry in the assay on rabbit corneal eye is “angiogenic”. The angiogenic activity result in [4] was “angiogenic”.

Take Tyr-Ile-His-Pro-Phe (YIHPF) [AII(4-8)]: the effectiveness result in [5] is “not to be effective; also recorded: ineffective”.

On to His-Pro-Phe (HPF) [AII(6-8)], for which the effectiveness result in [5] was “not to be effective”.
